# Measured values reported in US12486273B2 (Hoffmann-La Roche Inc., priority 2019, dated 2025).
# Columns and labels:
# [1] = biological target: human TLR7 (Homo sapiens (Human), UniProt Q9NYK1); assay: HEK293-Blue-hTLR-7 cells assay; type: cell-based; details: HEK293-Blue-hTLR7 cells, R848 stimulation, 20 hrs, SEAP reporter; read-out: HEK/hTLR7 IC50
# From the text: HEK293-BLUE-hTLR-7 CELLS ASSAY:
# (§1) A stable HEK293-Blue-hTLR-7 cell line was purchased from InvivoGen (Cat. #: hkb-htlr7, San Diego, California, USA). These cells were originally designed for studying the stimulation of human TLR7 by monitoring the activation of NF-κB. A SEAP (secreted embryonic alkaline phosphatase) reporter gene was placed under the control of the IFN-β minimal promoter fused to five NF-κB and AP-1-binding sites. The SEAP was induced by activating NF-κB and AP-1 via stimulating HEK-Blue hTLR7 cells with TLR7 ligands. Therefore the reporter expression was declined by TLR7 antagonist under the stimulation of a ligand, such as R848 (Resiquimod), for incubation of 20 hrs. The cell culture supernatant SEAP reporter activity was determined using QUANTI-Blue™ kit (Cat. #: rep-qb1, Invivogen, San Diego, Ca, USA) at a wavelength of 640 nm, a detection medium that turns purple or blue in the presence of alkaline phosphatase.
# (§2) HEK293-Blue-hTLR7 cells were incubated at a density of 250,000˜450,000 cells/mL in a volume of 170 μL in a 96-well plate in Dulbecco's Modified Eagle's medium (DMEM) containing 4.5 g/L glucose, 50 U/mL penicillin, […], […], 2 mM L-glutamine, 10% (v/v) heat-inactivated fetal bovine serum with addition of 20 μL test compound in a serial dilution in the presence of final DMSO at 1% and 10 μL of 20 μM R848 in above DMEM, perform incubation under 37° C. in a CO2 incubator for 20 hrs. Then 20 μL of the supernatant from each well was incubated with 180 μL Quanti-blue substrate solution at 37° C. for 2 hrs and the absorbance was read at 620-655 nm using a spectrophotometer. The signaling pathway that TLR7 activation leads to downstream NF-κB activation has been widely accepted, and therefore similar reporter assay was modified for evaluating TLR7 antagonist.
# [2] = biological target: human TLR9 (Homo sapiens (Human), UniProt Q9NR96); assay: HEK293-Blue-hTLR-9 cells assay; type: cell-based; details: HEK293-Blue-hTLR9 cells, ODN2006 stimulation, 20 hrs, SEAP reporter; read-out: HEK/hTLR9 IC50
# human TLR9, sequence (Q9NR96 26-1032): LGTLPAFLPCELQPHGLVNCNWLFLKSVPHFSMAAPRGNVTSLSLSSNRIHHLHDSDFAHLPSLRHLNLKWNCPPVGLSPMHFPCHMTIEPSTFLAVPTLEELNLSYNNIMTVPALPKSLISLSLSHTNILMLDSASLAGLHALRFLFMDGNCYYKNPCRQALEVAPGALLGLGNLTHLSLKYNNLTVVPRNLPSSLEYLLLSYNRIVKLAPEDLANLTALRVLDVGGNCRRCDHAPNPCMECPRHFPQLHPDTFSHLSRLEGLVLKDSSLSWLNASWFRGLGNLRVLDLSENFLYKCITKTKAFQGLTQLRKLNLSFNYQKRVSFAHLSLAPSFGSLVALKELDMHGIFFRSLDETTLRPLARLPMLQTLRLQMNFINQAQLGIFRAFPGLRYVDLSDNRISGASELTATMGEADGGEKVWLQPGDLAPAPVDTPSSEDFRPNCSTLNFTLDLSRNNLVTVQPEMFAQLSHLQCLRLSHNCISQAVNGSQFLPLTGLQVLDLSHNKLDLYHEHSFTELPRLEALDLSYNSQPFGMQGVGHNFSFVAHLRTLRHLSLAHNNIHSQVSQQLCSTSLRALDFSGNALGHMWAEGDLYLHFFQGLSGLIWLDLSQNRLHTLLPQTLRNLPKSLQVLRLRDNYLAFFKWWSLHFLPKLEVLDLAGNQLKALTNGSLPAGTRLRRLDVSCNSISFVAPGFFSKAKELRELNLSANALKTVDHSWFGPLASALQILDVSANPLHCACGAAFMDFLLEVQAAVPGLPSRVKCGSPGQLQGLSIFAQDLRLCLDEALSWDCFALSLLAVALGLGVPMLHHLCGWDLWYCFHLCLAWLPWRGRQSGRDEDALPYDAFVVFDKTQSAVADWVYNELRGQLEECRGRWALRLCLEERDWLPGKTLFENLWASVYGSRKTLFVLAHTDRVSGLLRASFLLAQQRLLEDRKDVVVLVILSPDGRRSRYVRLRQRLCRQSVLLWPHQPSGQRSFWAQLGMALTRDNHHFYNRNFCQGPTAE
# From the text: HEK293-Blue-hTLR-9 Cells Assay:
# A stable HEK293-Blue-hTLR-9 cell line was purchased from InvivoGen (Cat. #: hkb-htlr9, San Diego, California, USA). These cells were originally designed for studying the stimulation of human TLR9 by monitoring the activation of NF-κB. A SEAP (secreted embryonic alkaline phosphatase) reporter gene was placed under the control of the IFN-β minimal promoter fused to five NF-κB and AP-1-binding sites. The SEAP was induced by activating NF-κB and AP-via stimulating HEK-Blue hTLR9 cells with TLR9 ligands. Therefore the reporter expression was declined by TLR9 antagonist under the stimulation of a ligand, such as ODN2006 (Cat. #: tlrl-2006-1, Invivogen, San Diego, California, USA), for incubation of 20 hrs. The cell culture supernatant SEAP reporter activity was determined using QUANTI-Blue™ kit (Cat. #: rep-qb1, Invivogen, San Diego, California, USA) at a wavelength of 640 nm, a detection medium that turns purple or blue in the presence of alkaline phosphatase.
# as §2, with “HEK293-Blue-hTLR9 cells” for “HEK293-Blue-hTLR7 cells”, “μM ODN2006” for “μM R848”, “2 h” for “2 hrs”, “that TLR9” for “that TLR7”, “evaluating TLR9” for “evaluating TLR7”
# [3] = biological target: human TLR8 (Homo sapiens (Human), UniProt Q9NR97); assay: HEK293-Blue-hTLR-8 cells assay; type: cell-based; details: HEK293-Blue-hTLR8 cells, R848 stimulation, 20 hrs, SEAP reporter; read-out: HEK/hTLR8 IC50
# human TLR8, sequence (Q9NR97 27-1041): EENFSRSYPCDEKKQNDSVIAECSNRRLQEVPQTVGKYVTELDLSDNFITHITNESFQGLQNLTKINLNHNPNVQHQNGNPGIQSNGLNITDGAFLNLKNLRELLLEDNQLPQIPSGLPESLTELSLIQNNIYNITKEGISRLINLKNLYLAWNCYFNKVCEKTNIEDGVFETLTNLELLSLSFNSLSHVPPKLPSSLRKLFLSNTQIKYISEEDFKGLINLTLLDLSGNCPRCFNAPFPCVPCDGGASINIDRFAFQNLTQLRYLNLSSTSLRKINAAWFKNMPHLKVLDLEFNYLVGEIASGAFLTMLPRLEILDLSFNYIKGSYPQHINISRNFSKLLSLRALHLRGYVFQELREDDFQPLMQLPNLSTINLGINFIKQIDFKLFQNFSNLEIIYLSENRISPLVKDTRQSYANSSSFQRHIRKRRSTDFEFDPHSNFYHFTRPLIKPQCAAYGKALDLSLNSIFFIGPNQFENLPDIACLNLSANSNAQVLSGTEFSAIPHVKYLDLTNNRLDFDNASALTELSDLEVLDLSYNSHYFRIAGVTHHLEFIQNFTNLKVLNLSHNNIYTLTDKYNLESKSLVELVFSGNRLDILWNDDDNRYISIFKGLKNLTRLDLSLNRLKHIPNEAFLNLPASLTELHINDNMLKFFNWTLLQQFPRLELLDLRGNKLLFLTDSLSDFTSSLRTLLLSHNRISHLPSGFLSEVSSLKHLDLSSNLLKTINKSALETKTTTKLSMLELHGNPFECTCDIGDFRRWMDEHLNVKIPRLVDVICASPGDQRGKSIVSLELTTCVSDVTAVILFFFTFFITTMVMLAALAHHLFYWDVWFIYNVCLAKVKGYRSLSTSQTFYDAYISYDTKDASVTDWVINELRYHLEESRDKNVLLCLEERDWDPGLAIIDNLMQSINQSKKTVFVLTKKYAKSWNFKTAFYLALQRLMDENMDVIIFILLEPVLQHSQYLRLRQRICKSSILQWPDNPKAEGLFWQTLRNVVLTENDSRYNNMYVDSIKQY
# From the text: HEK293-Blue-hTLR-8 Cells Assay:
# as §1, with “HEK293-Blue-hTLR-8” for “HEK293-Blue-hTLR-7”, “hkb-htlr8,” for “hkb-htlr7,”, “TLR8” for “TLR7”, “hTLR8” for “hTLR7”, “R848,” for “R848 (Resiquimod),”, “rep-Qb1,” for “rep-qb1,”
# HEK293-Blue-hTLR8 cells were incubated at a density of 250,000-450,000 cells/mL in a volume of 170 μL in a 96-well plate in Dulbecco's Modified Eagle's medium (DMEM) containing 4.5 g/L glucose, 50 U/mL penicillin, […], […], 2 mM L-glutamine, 10% (v/v) heat-inactivated fetal bovine serum with addition of 20 μL test compound in a serial dilution in the presence of final DMSO at 1% and 10 μL of 60 μM R848 in above DMEM, perform incubation under 37° C. in a CO2 incubator for 20 hrs. Then 20 μL of the supernatant from each well was incubated with 180 μL Quanti-blue substrate solution at 37° C. for […] and the absorbance was read at 620˜655 nm using a spectrophotometer. The signaling pathway that TLR8 activation leads to downstream NF-κB activation has been widely accepted, and therefore similar reporter assay was modified for evaluating TLR8 antagonist.
# [4] = Human microsomal stability assay; type: in vitro ADME; details: human liver microsomes, 1 μM test compound, 37° C., pH 7.4
# Description: Human Microsomal Stability Assay
# Human liver microsomes (Cat. NO.: 452117, Corning, USA) were preincubated with test compound for 10 minutes at 37° C. in 100 mM potassium phosphate buffer, pH 7.4. The reactions were initiated by adding NADPH regenerating system. The final incubation mixtures contained 1 μM test compound, 0.5 mg/mL liver microsomal protein, 1 mM MgCl2, 1 mM NADP, 1 unit/mL isocitric dehydrogenase and 6 mM isocitric acid in 100 mM potassium phosphate buffer, pH 7.4. After incubation times of 0, 3, 6, 9, 15 and 30 minutes at 37° C., 300 μL of cold ACN (including internal standard) was added to 100 μL incubation mixture to terminate the reaction. Following precipitation and centrifugation, 100 μL supernatant will be taken out and added 300 μL water. The amount of compound remaining in the samples was determined by LC-MS/MS. Controls of no NADPH regenerating system at zero and 30 minutes were also prepared and analyzed. The results were categorized as: low (<7.0 mL/min/kg), medium (7.0-16.2 mL/min/kg) and high (16.2-23.2 mL/min/kg).
# human TLR7, sequence (Q9NYK1 27-1049): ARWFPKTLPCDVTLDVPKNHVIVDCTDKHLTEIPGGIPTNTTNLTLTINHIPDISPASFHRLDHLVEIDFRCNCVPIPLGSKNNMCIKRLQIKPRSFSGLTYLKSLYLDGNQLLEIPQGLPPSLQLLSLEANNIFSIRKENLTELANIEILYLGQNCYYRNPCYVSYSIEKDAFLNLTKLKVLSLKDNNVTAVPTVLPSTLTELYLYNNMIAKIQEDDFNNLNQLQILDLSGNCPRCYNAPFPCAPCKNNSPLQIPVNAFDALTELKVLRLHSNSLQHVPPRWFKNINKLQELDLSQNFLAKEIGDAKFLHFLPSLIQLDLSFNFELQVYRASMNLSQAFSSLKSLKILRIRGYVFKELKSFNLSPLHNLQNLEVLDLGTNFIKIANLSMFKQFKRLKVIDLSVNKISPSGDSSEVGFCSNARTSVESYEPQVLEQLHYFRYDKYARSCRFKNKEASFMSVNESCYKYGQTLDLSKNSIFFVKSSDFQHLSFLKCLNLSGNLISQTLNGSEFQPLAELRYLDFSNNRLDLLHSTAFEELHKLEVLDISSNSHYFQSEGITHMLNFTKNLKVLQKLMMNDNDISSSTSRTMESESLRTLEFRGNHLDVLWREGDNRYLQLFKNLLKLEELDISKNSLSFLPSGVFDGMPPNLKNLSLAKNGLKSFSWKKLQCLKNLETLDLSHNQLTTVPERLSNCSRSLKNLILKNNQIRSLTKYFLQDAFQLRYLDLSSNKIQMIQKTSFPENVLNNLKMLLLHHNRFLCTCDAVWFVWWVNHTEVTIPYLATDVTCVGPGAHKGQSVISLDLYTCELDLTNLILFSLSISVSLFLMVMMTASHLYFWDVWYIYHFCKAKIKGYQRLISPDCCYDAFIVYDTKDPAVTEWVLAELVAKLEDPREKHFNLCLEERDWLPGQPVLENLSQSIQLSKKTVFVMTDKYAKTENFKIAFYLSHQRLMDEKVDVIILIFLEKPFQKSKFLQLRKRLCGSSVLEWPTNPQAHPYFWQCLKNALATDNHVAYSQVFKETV
IC50 [1],IC50 [2],IC50 [3],CL (h) [4],SMILES
10.5 nM,407 nM,13.8 nM,8.1 mL/min/kg,"[2H]c1ccc2c(N3C[C@@H]4C[C@H](n5ncc6c5CNCC6)CN4[C@H](C)C3)ccc(C#N)c2n1 [Example 23A, 2-Deuterio-5-[(4R,7S,8aS)-4-methyl-7-(4,5,6,7-tetrahydropyrazolo[3,4-c]pyridin-1-yl)-3,4,6,7,8,8a-hexahydro-1H-pyrrolo[1,2-a]pyrazin-2-yl]quinoline-8-carbonitrile]"
4.3 nM,95.2 nM,5.9 nM,8.9 mL/min/kg,[2H]c1ccc2c(N3C[C@@H]4C[C@H](N5CCc6ncc(N7CCNCC7)nc6C5)CN4[C@H](C)C3)ccc(C#N)c2n1 [Example 24]
10.3 nM,32.1 nM,14.5 nM,8.2 mL/min/kg,"[2H]c1ccc2c(N3C[C@@H]4C[C@H](N5CC(n6ncc7c6CN[C@H](C)C7)C5)CN4[C@H](C)C3)ccc(C#N)c2n1 [Example 22A, 5-[(4R,7S,8aS)-4-methyl-7-[3-[(5R)-5-methyl-4,5,6,7-tetrahydropyrazolo[3,4-c]pyridin-1-yl]azetidin-1-yl]-3,4,6,7,8,8a-hexahydro-1H-pyrrolo[1,2-a]pyrazin-2-yl]-2-deuterio-quinoline-8-carbonitrile]"
18.2 nM,65.7 nM,8.6 nM,8.4 mL/min/kg,"C[C@@H]1NCCc2cnc(N[C@@H]3C[C@H]4CN(c5ccc(C#N)c6ncccc56)C[C@@H](C)N4C3)cc21 [Example 9A, 5-[(4R,7R,8aS)-4-methyl-7-[[(5S)-5-methyl-5,6,7,8-tetrahydro-2,6-naphthyridin-3-yl]amino]-3,4,6,7,8,8a-hexahydro-1H-pyrrolo[1,2-a]pyrazin-2-yl]quinoline-8-carbonitrile]"
16.4 nM,46.7 nM,12.3 nM,9.8 mL/min/kg,"[2H]c1ccc2c(N3C[C@@H]4C[C@H](N5CCC(C)(N)CC5)CN4[C@H](C)C3)ccc(C#N)c2n1 [Example 18, 5-[(4R,7S,8aS)-7-(4-amino-4-methyl-1-piperidyl)-4-methyl-3,4,6,7,8,8a-hexahydro-1H-pyrrolo[1,2-a]pyrazin-2-yl]-2-deuterio-quinoline-8-carbonitrile]"
13.3 nM,42.1 nM,4.7 nM,9.6 mL/min/kg,"C[C@@H]1CN(c2ccc(C#N)c3ncccc23)C[C@@H]2C[C@@H](Nc3cc4c(cn3)CCN[C@@H]4C)CN21 [Example 9B, 5-[(4R,7R,8aS)-4-methyl-7-[[(5R)-5-methyl-5,6,7,8-tetrahydro-2,6-naphthyridin-3-yl]amino]-3,4,6,7,8,8a-hexahydro-1H-pyrrolo[1,2-a]pyrazin-2-yl]quinoline-8-carbonitrile]"
16.2 nM,247 nM,4 nM,–,"C[C@@H]1CN(c2ccc(C#N)c3ncccc23)C[C@@H]2CC(Oc3ccc4c(n3)CCNC4)CN21 (stereo partly drawn) [Example 14, 5-[(4R,8aS)-4-methyl-7-(5,6,7,8-tetrahydro-1,6-naphthyridin-2-yloxy)-3,4,6,7,8,8a-hexahydro-1H-pyrrolo[1,2-a]pyrazin-2-yl]quinoline-8-carbonitrile]"
12 nM,154 nM,3.4 nM,6.2 mL/min/kg,"[2H]c1ccc2c(N3C[C@@H]4C[C@H](n5cc6c(n5)CNCC6)CN4[C@H](C)C3)ccc(C#N)c2n1 [Example 23B, 2-deuterio-5-[(4R,7S,8aS)-4-methyl-7-(4,5,6,7-tetrahydropyrazolo[3,4-c]pyridin-2-yl)-3,4,6,7,8,8a-hexahydro-1H-pyrrolo[1,2-a]pyrazin-2-yl]quinoline-8-carbonitrile]"
45.1 nM,108 nM,17.2 nM,–,"CO[C@@H]1CN(c2cc3c(cn2)CCN([C@H]2C[C@H]4CN(c5ccc(C#N)c6ncccc56)C[C@@H](C)N4C2)C3)C[C@H]1N [Example 12, 5-[(4R,7S,8aS)-7-[7-[(3R,4R)-3-amino-4-methoxy-pyrrolidin-1-yl]-3,4-dihydro-1H-2,6-naphthyridin-2-yl]-4-methyl-3,4,6,7,8,8a-hexahydro-1H-pyrrolo[1,2-a]pyrazin-2-yl]quinoline-8-carbonitrile]"

SMILES,IC50 [1],IC50 [2],IC50 [3],CL (h) [4]
"[2H]c1ccc2c(N3C[C@@H]4C[C@H](N5CC6CCC(C5)N6)CN4[C@H](C)C3)ccc(C#N)c2n1 [Example 16, 2-Deuterio-5-[(4R,7S,8aS)-7-(3,8-diazabicyclo[3.2.1]octan-3-yl)-4-methyl-3,4,6,7,8,8a-hexahydro-1H-pyrrolo[1,2-a]pyrazin-2-yl]quinoline-8-carbonitrile]",8.1 nM,40.9 nM,4.7 nM,7.2 mL/min/kg
